# PubChem BioAssay (NCI)
#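 How tested: cells in 96-well plates exposed to compound for 48 hours at five concentrations. TGI denotes the concentration required for complete inhibition of growth.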
# Tests used:
# Assay in all cases: NCI tumour cell line growth inhibition, 48 h
# NCI-H522 lung = tested on: NCI-H522 lung
# A498 renal = tested on: A498 renal
# SF-539 CNS = tested on: SF-539 CNS
# U251 CNS = tested on: U251 CNS
# P388 leukemia = tested on: P388 leukemia
# XF 498 CNS = tested on: XF 498 CNS
# SK-MEL-2 melanoma = tested on: SK-MEL-2 melanoma
# SNB-75 CNS = tested on: SNB-75 CNS
# HL-60(TB) leukemia = tested on: HL-60(TB) leukemia
# SNB-19 CNS = tested on: SNB-19 CNS
# HCT-15 colon = tested on: HCT-15 colon
# MOLT-4 leukemia = tested on: MOLT-4 leukemia
# CAKI-1 renal = tested on: CAKI-1 renal
# MCF7 breast = tested on: MCF7 breast
# KM20L2 colon = tested on: KM20L2 colon
# SN12K1 renal = tested on: SN12K1 renal
# DMS 114 small cell lung = tested on: DMS 114 small cell lung
# SNB-78 CNS = tested on: SNB-78 CNS
# HCT-116 colon = tested on: HCT-116 colon
# RXF 393 renal = tested on: RXF 393 renal
# OVCAR-5 ovarian = tested on: OVCAR-5 ovarian
# SF-268 CNS = tested on: SF-268 CNS
# NCI-H23 lung = tested on: NCI-H23 lung
# OVCAR-4 ovarian = tested on: OVCAR-4 ovarian
# UO-31 renal = tested on: UO-31 renal
# SF-295 CNS = tested on: SF-295 CNS
# UACC-62 melanoma = tested on: UACC-62 melanoma
# MALME-3M melanoma = tested on: MALME-3M melanoma
# HT29 colon = tested on: HT29 colon
# NCI-H460 lung = tested on: NCI-H460 lung
# RPMI-8226 leukemia = tested on: RPMI-8226 leukemia
# KM12 colon = tested on: KM12 colon
# COLO 205 colon = tested on: COLO 205 colon
# UACC-257 melanoma = tested on: UACC-257 melanoma
# A549 NSCLC = tested on: A549 NSCLC
# IGROV1 ovarian = tested on: IGROV1 ovarian
# DLD-1 colon = tested on: DLD-1 colon
# CCRF-CEM leukemia = tested on: CCRF-CEM leukemia
# LOX IMVI melanoma = tested on: LOX IMVI melanoma
# HOP-62 NSCLC = tested on: HOP-62 NSCLC
# EKVX NSCLC = tested on: EKVX NSCLC
# SK-MEL-28 melanoma = tested on: SK-MEL-28 melanoma
# OVCAR-3 ovarian = tested on: OVCAR-3 ovarian
# SW-620 colon = tested on: SW-620 colon
# HOP-18 NSCLC = tested on: HOP-18 NSCLC
# HCC-2998 colon = tested on: HCC-2998 colon
# SK-OV-3 ovarian = tested on: SK-OV-3 ovarian
# OVCAR-8 ovarian = tested on: OVCAR-8 ovarian
# DMS 273 small cell lung = tested on: DMS 273 small cell lung
# NCI-H226 lung = tested on: NCI-H226 lung
# P388/ADR leukemia = tested on: P388/ADR leukemia
# SN12C renal = tested on: SN12C renal
# SK-MEL-5 melanoma = tested on: SK-MEL-5 melanoma
# NCI/ADR-RES ovarian = tested on: NCI/ADR-RES ovarian
# HOP-92 NSCLC = tested on: HOP-92 NSCLC
# K-562 leukemia = tested on: K-562 leukemia
smiles,measurement,setting,value
C=CCCCCn1c2ccccc2c2c(C)c3cnccc3c(C)c21,TGI,NCI-H522 lung,18 µM
same,TGI,A498 renal,17.8 µM
same,TGI,SF-539 CNS,33.5 µM
same,TGI,U251 CNS,40.6 µM
same,TGI,P388 leukemia,10.2 µM
same,TGI,XF 498 CNS,4.36 µM
same,TGI,SK-MEL-2 melanoma,47.3 µM
same,TGI,SNB-75 CNS,53.7 µM
same,TGI,HL-60(TB) leukemia,4.92 µM
same,TGI,SNB-19 CNS,37.9 µM
same,TGI,HCT-15 colon,27.5 µM
same,TGI,MOLT-4 leukemia,9.47 µM
same,TGI,CAKI-1 renal,27.8 µM
same,TGI,MCF7 breast,36.7 µM
same,TGI,KM20L2 colon,31.9 µM
same,TGI,SN12K1 renal,44.3 µM
same,TGI,DMS 114 small cell lung,16.8 µM
same,TGI,SNB-78 CNS,46.3 µM
same,TGI,HCT-116 colon,20.9 µM
same,TGI,RXF 393 renal,43 µM
same,TGI,OVCAR-5 ovarian,40.4 µM
same,TGI,SF-268 CNS,77.8 µM
same,TGI,NCI-H23 lung,32.8 µM
same,TGI,OVCAR-4 ovarian,21.8 µM
same,TGI,UO-31 renal,23.8 µM
same,TGI,SF-295 CNS,26 µM
same,TGI,UACC-62 melanoma,40.9 µM
same,TGI,MALME-3M melanoma,36.8 µM
same,TGI,HT29 colon,25.7 µM
same,TGI,NCI-H460 lung,39.2 µM
same,TGI,RPMI-8226 leukemia,12.8 µM
same,TGI,KM12 colon,42.6 µM
same,TGI,COLO 205 colon,18 µM
same,TGI,UACC-257 melanoma,18.7 µM
same,TGI,A549 NSCLC,32.2 µM
same,TGI,IGROV1 ovarian,46.4 µM
same,TGI,DLD-1 colon,29.9 µM
same,TGI,CCRF-CEM leukemia,14.3 µM
same,TGI,LOX IMVI melanoma,82.5 µM
same,TGI,HOP-62 NSCLC,35.9 µM
same,TGI,EKVX NSCLC,34.4 µM
same,TGI,SK-MEL-28 melanoma,40.8 µM
same,TGI,OVCAR-3 ovarian,19.9 µM
same,TGI,SW-620 colon,73.6 µM
same,TGI,HOP-18 NSCLC,35.6 µM
same,TGI,HCC-2998 colon,51.2 µM
same,TGI,SK-OV-3 ovarian,35.9 µM
same,TGI,OVCAR-8 ovarian,21.2 µM
same,TGI,DMS 273 small cell lung,20.5 µM
same,TGI,NCI-H226 lung,94.9 µM
same,TGI,P388/ADR leukemia,15.8 µM
same,TGI,SN12C renal,29.7 µM
same,TGI,SK-MEL-5 melanoma,16.7 µM
same,TGI,NCI/ADR-RES ovarian,33.7 µM
same,TGI,HOP-92 NSCLC,19.8 µM
same,TGI,K-562 leukemia,16.1 µM
